From US20130316958A1 (University of Southern California, priority 2010, published 2013)
Residues, ends and D or L forms follow the SMILES beside them. No end group written: not given here. *: point of attachment. Cbz = O=C(OCc1ccccc1)*; CH2F = FC*

Experiments:
Format in all cases: cell-based
[1] = test system: human Beclin1; assay: Beclin1 siRNA knockdown in BCBL1 cells
Procedure: (§1) All siRNAs were produced by Dharmacon Research. siRNAs specific for human Beclin1 (5′[…]3′) and a nonspecific scrambled control siRNA were transfected using DharmaFect reagent (Dharmacon) according to the manufacturer's instructions. At 48-72 hr post-transfection, cells were analyzed for autophagy. Trypan blue staining and a Beckman Coulter Z2 Particle Count and Size analyzer were used to determine cell death (as a percentage) at day 5.

[2] = test system: KSHV-infected BCBL1 cells; assay: Rapamycin- or zVAD-induced growth suppression and autophagic death
Procedure: (§2) The effect of vFLIP on autophagy was tested in a KSHV-infected BCBL1 cell line. TREX-BCBL-Vector and TREX-BCBL-vFLIP cells were treated with rapamycin or left untreated for 6 days in the presence of doxycycline and subjected to scanning EM, to examine the morphologies of over 100 dead cells and quantify cell death for apoptosis and autophagic death, or subjected to PI staining and cell cycle analysis.
as §1

[3] = test system: ALL cells; assay: Tumor cell viability by trypan blue exclusion, ALL cells; settings: for anticancer activity in ALL cell lines: BV-173 and SUP-B15, FIG. 5
Procedure: (§3) Tumor cells were treated with peptides at various concentrations for 12 hours and their viability measured by trypan blue exclusion, followed by analyses using the Beckman Coulter Z2 Particle Count and Size Analyzer (BC Z2 CS Analyzer). A minimum of 100 cells per sample using triplicate samples was counted per condition per experiment.

[4] = test system: mTor kinase activity in BCBL1 cells; assay: Immunoblot of p70S6K and ribosomal protein S6 phosphorylation; settings: treated BCBL1 cells
Procedure: Levels of phosphorylation of p70S6K and ribosomal protein S6 in BCBL1 cells were evaluated by immunoblotting with α-p70S6K, aphospho-specific p70S6K, aphospho-specific S6, or αactin.

[5] = test system: virus-associated or non-virus-associated lymphoma cells; assay: Cell-type specificity of vFLIP peptide-induced death; settings: 30 or 50 μM peptide overnight
Procedure: The potential cell-type specificity of the activity of the vFLIP peptides was assessed by treating virus-associated or non-virus-associated lymphoma cells with 30 or 50 μM of the K-α2 or the K-α4 peptide overnight and subsequently assessing death levels.

[6] = test system: KSHV-infected TREX-BCBL-Vector cells; assay: GFP-LC3 puncta autophagy assessment after peptide treatment; settings: 30 or 50 μM peptide, 12 hr
Description: (§4) The vFLIP α2 (10 aa) and α4 (12 aa) peptides that independently bound Atg3 at high efficiency were fused with the HIV-1 TAT protein transduction domain for intracellular delivery (Gump and Dowdy (2007) Trends Mol. Med. 13:443-448) and tested for their potential effects on autophagy induction. The K-α2 and K-α4 peptides contained KSHV vFLIP aa20-29 and aa128-139 regions, respectively, as retro-inverso versions to circumvent the proteolytic degradation. Mutant peptides K-α2m and K-α4m were also included, which replaced the hydrophobic core residues of the K-α2 (L21F22L23) and K-α4 (F130L-WVY139) peptides with alanines, as well as the C-α2 and C-α4 peptides containing the cFLIPs regions aa19-28 and aa128-139, respectively. At 12 hr post-transfection with GFP-LC3, KSHV-infected TREX-BCBL-Vector and TREX-BCBL-vFLIP cells were incubated with various concentrations of the peptides or rapamycin for an additional 12 hr, followed by an assessment of the GFP-LC3 puncta and cell death. […] Peptide-treated TREX-BCBL-Vector and TREX-BCBL-vFLIP cells were subjected to immunoblotting with αLC3 and aactin.

[7] = test system: LC3-II in BCBL1 cells; assay: Immunoblotting with αLC3 of peptide-treated cells; settings: immunoblot
Description: as §4

[8] = test system: KSHV-infected BCBL1 cells; assay: Combinatory treatment with rapamycin and peptide; settings: 25 nM rapamycin and 20 μM peptide, versus rapamycin or peptide alone
[9] = test system: LNCap cells; assay: Tumor cell viability, LNCap prostate cancer line
Procedure: as §3

[10] = test system: human erythromyeloblastoid leukemia cells, K562; assay: Tumor cell viability by trypan blue exclusion, K562; settings: FIG. 6B
Procedure: as §3

[11] = test system: HCT116; assay: Tumor cell viability, HCT116 colon cancer line; settings: FIG. 7C
Procedure: as §3

[12] = test system: 293T cells; assay: Tumor cell viability, 293T cells; settings: FIG. 7B
Procedure: as §3

[13] = test system: human T cell lymphoblast-like cells, Jurket T; assay: Tumor cell viability by trypan blue exclusion, Jurket T; settings: FIG. 6A
Procedure: as §3

[14] = test system: TREX-BCBL cells; assay: vFLIP expression in KSHV-infected BCBL1 cells: autophagy, growth suppression and death; settings: ectopic expression in BCBL1 cells
Procedure: To investigate whether vFLIP expression suppresses autophagy in virus-infected cells, a KSHV-infected BCBL1 cell line was constructed (TREX-BCBL) in which a Flag-tagged KSHV-vFLIP gene was integrated into the chromosomal DNA under the control of a tetracycline-inducible promoter. (Nakamura et al. (2003) J. Virol. 77:4205-4220). At 12-16 hr post-transfection with GFP-LC3, TREX-BCBL-Vector and TREX-BCBL-vFLIP cells were treated with Doxycycline for 24 hr, followed by incubation with 2 μM rapamycin for an additional 12 hr. The detection of GFP-LC3 and autophagy levels was performed as described above, vFLIP expression was detected by IB with anti-Flag, and autophagosomes were visualized by scanning EM (scale bar=50 nm). Treatment of these cells with doxycycline strongly activated Flag-vFLIP expression.
as §2, §1

[15] = test system: NIH3T3 cells; assay: TNFα-induced apoptosis by PI staining and flow cytometry; settings: CHX and TNF-α 12 hr
Description: To determine the effects of the interactions of vFLIP with FADD, IKKαβγ, and 14-3-3σ on anti-autophagy activity, NIH3T3 cells stably expressing various vFLIP mutants were constructed: m14-3-3σ, which lacks 14-3-3σ-binding; mTRAF2, which lacks TRAF2-binding (Guasparri et al. (2006) EMBO Rep. 7:114-119); 67AAA and 58AAA, which have reduced NF-κB activation (Matta and Chaudhary (2004) Proc. Natl. Acad. Sci. USA 101:9399-9404); and mFADD, which lacks FADD-binding (Yang et al. (2005) Mol. Cell. 20:939-949). These cells were treated with either cyclohexamide (CHX) alone or CHX and TNF-α for 12 hr or with 2 μM rapamycin for 3 hr. Propidium iodide (PI) staining and flow cytometry analysis were performed to determine apoptosis levels. Alternatively, NIH3T3 cells containing vector, KSHV vFLIP, or its mutants were transfected with an NF-κB-luciferase reporter construct and a control renilla luciferase plasmid, pRL-SV40 (Promega). At 48 hr post-transfection, luciferase activity was measured with a luminometer using a dual luciferase assay kit (Promega) and normalized with renilla luciferase activity to determine transfection efficiency. GFP-LC3 puncta were detected using an inverted fluorescence microscope and the autophagy levels quantified as means (±SD) of the results from three independent experiments.

5′AAGAUCCUGGACCGUGUCACC3′ [Beclin1 siRNA]
endogenous Beclin1 expression [1]: significantly reduced endogenous Beclin1 expression | effect on rapamycin-induced autophagic death ([1]; cell death at day 5): attenuated rapamycin-induced autophagic death

CO[C@H]1C[C@@H]2CC[C@@H](C)[C@@](O)(O2)C(=O)C(=O)N2CCCC[C@H]2C(=O)O[C@H]([C@H](C)C[C@@H]2CC[C@@H](O)[C@H](OC)C2)CC(=O)[C@H](C)/C=C(\C)[C@@H](O)[C@@H](OC)C(=O)[C@H](C)C[C@H](C)/C=C/C=C/C=C/1C [rapamycin]
dead cells with features characteristic of autophagic death (EM) ([2]; rapamycin, 6 days, over 100 dead cells examined): approximately 60%

COC(=O)CC(NC(=O)C(C)NC(=O)C(NC(=O)OCc1ccccc1)C(C)C)C(=O)CF (stereo not drawn) [zVAD, benzyloxycarbonylvalyl-alanyl-aspartic acid (O-methyl)-fluoro-methylketone] (Cbz-Val-Ala-Asp(OMe)-CH2F; configuration not given here)
growth suppression and cell death ([2]; BCBL1 cells): effectively induced growth suppression and death of BCBL1 cells

RRRQRRKKRGY-G-FVNLLFLVVE (RRRQRRKKRGYGFVNLLFLVVE; not fully specified) [K-α2, HIV-1 TAT-fused retro-inverso peptide containing KSHV vFLIP aa20-29]
anticancer activity in ALL cell lines [3]: significant anticancer activities | phosphorylation of p70S6K [4]: marginal reduction | phosphorylation of ribosomal protein S6 [4]: remained unaffected | cell death by lymphoma cell type [5]: primarily targeted KSHV-infected PEL cells (BCBL1, BCP-1, and BC-3), but not KSHV/EBV-coinfected PEL cells (BC-1 and JSC-1), EBV-immortalized Bob-B cells, nor non-virus-associated lymphoma cells (BJAB, K562 and Jurkat-T) | autophagy induction (GFP-LC3 puncta) [6]: able to induce autophagy in TREX-BCBL-Vector cells as effectively as 2 μM rapamycin | amount of LC3-II [7]: A high amount of LC3-II was detected | growth suppression and cell death in combination with rapamycin [8]: marked increase of growth suppression and cell death

RRRQRRKKRGY-G-NEMCYVWHLFTQ (RRRQRRKKRGYGNEMCYVWHLFTQ; not fully specified) [K-α4, HIV-1 TAT-fused retro-inverso peptide containing KSHV vFLIP aa128-139]
anticancer activity in LNCap cells ([9]; FIG. 7A): anticancer activities | anticancer activity in LNCaP cells (cell count and relative luminescence) ([9]; FIG. 8): confirms the anticancer activities | anticancer activity in ALL cell lines [3]: significant anticancer activities | cell death in ALL cells ([3]; TAT linked peptide, 30 μM and 50 μM, compared to TAT alone, FIG. 1): induced cell deaths in various ALL cells | cell death in K562 [10]: induced cell death | phosphorylation of p70S6K [4]: marginal reduction | phosphorylation of ribosomal protein S6 [4]: remained unaffected | cell death by lymphoma cell type [5]: broadly targeted most lymphoma cells, resulting in varying degrees of cell death | anticancer activity in HCT116 [11]: anticancer activities | anticancer activity in 293T cells [12]: anticancer activities | autophagy induction (GFP-LC3 puncta) [6]: able to induce autophagy in TREX-BCBL-Vector cells as effectively as 2 μM rapamycin | amount of LC3-II [7]: A high amount of LC3-II was detected | cell death in Jurket T [13]: induced cell death | growth suppression and cell death in combination with rapamycin [8]: marked increase of growth suppression and cell death

B1: mFADD (protein, UniProt Q61160 1-205, looked up)
FAS-associated death domain …: MDPFLVLLHSLSGSLSGNDLMELKFLCRERVSKRKLERVQSGLDLFTVLLEQNDLERGHTGLLRELLASLRRHDLLQRLDDFEAGTATAAPPGEADLQVAFDIVCDNVGRDWKRLARELKVSEAKMDGIEEKYPRSLSERVRESLKVWKNAEKKNASVAGLVKALRTCRLNLVADLVEEAQESVSKSENMSPVLRDSTVSSSETP
block of rapamycin- or zVAD-induced growth suppression and autophagic death [14]: almost completely blocked | block of TNFα-induced apoptosis [15]: either poorly blocked TNFα-induced apoptosis or no longer block it at all
